SMILES strings stand for the structures.

Assay [1] deals with tetrabenazine-induced ptosis. Put plainly: inhibition of tetrabenazine-induced depression (ptosis) in mice. The class given is in vivo.
Assay [2] relates to phenyl-p-quinone writhing. In words: phenyl-p-quinone writhing assay in mice. The class given is in vivo. The settings on record: Mus musculus, sc. An excerpt: The (aminoalkylthio)hydroxydibenzoxepins of the present invention are also useful as analgetic agents due to their ability to alleviate pain in mammals. […] Exptl.

Turning to `CN(C)CCC=C1c2ccccc2CCc2ccccc21` [Amitriptyline, reference compound], the “EDso (tetrabenazine-induced ptosis)” value in assay [1] (intraperitoneally, standard antidepressant, unit not given) came to 1.5.

In the case of `CNCCSC1=Cc2cc(O)ccc2Oc2ccc(F)cc21` [Example 2, 2-Fluoro-8-hydroxy-11-[β-(methylamino)ethylthio)-dibenz-[b,f]oxepin], the ED50 in assay [1] (Mus musculus, ip, intraperitoneal, read-out: intraperitoneal dose effecting a 50% inhibition of tetrabenazine-induced ptosis (ED50)) was found to be 3.3 mg/kg. In assay [2] (mice, subcutaneous dose 20 mg/kg of body weight), this molecule registered an inhibition at 20 mg/kg of 69%.

Take `CNCCSC1=Cc2ccc(O)cc2Oc2ccc(F)cc21` [Example 3, 2-Fluoro-7-hydroxy-11-[β-(methylamino)ethylthio]-dibenz-[b,f]oxepin]: testing at 20 mg/kg in assay [1] (Mus musculus, ip, intraperitoneal dose 20 mg/kg of body weight) gave an inhibition of 89%. This molecule gave an inhibition at 10 mg/kg in assay [2] (mice, subcutaneous dose 10 mg/kg of body weight) of 42%.

As for `CCC(=O)O[C@](Cc1ccccc1)(c1ccccc1)[C@H](C)CN(C)C` [Propoxyphene, reference compound], the ED50 in assay [2] (read-out: dose giving calculated 50% inhibition of writhing) was 3.9 mg/kg.
